Assays:
[1] = test system: osteoporotic model mice; assay: μCT three-dimensional trabecular structure analysis of femoral distal epiphyses; format: in vivo, mouse; conditions: for Conclusion of 3-D image analysis: effects on bone density and trabecular structure: OVX mice, distal epiphyses and diaphyses, FIGS. 8 and 9; for Order according to the importance of the effects on improvement of trabecular bone structure: ranked after sham and risedronate groups
Experimental: (§1) For study ICR female model mice of 10 weeks (of 20 g) were used. These mice underwent ovariectomy (OVX control group) and sham operation (sham operated group), and were subsequently fed with a conventional diet for 2 months, and then divided into 6 groups, each group having 10 mice. Of these, an OVX control group and a sham operated group were fed with 1.5 to 1.8% calcium containing feed which contained calcium carbonate as a calcium source. Further as a reference group, one group was treated with a bisphosphonate preparation (risedronate), which is an anti-osteoporotic agent showing obviously higher bone density. Remaining 3 groups were fed with special feeds, containing foodstuff and food additives. Combinations of foodstuff and food additives used in the present study are shown below in Table 4.
(§2) After being fed these feeds for 2 months, mice were decapitated for blood collection. Then serum was separated from the collected blood, and after that calcium, phosphorus, and magnesium concentrations and alkaline phosphatase level of the serum were determined. Furthermore, after a resection of femurs, a three-dimensional bone densitometry and bone structure analysis were conducted on the femoral distal epiphyses and diaphyses, using pQCT (Peripheral Quantitative Computed Tomography) and μCT (micro focus X-ray CT).
For an analysis of the trabecular structure, three-dimensional image data of femoral distal epiphyses were acquired using X-ray μCT (MCT-CB130F, Hitachi Medico), of 8×8 μm focus, with micro focus X-ray tube. As conditions for imaging, tube voltage was 40 kV, tube current 100 μA, and voxel size 17.8×17.8×17.8 μm, so that 50 volume data for each were acquired. Three-dimensional images were reconstructed based on the acquired 50 two-dimensional images of a trabecular bone and a cortical bone. 3D parameters were then determined on these 3D images using trabecular structure measuring software (TRI/3D-BON; RATOC System Engineering, Co., Ltd). The determined structural parameters are listed below in Table 5.
Student's t-test was used for statistical treatment for comparison between the groups. Only the parameters showing significant difference in the OVX control group are compared to those in the remaining groups.

[2] = test system: osteoporotic model mice; assay: pQCT three-dimensional bone densitometry of femoral distal epiphyses and diaphyses; format: in vivo, mouse; conditions: for Items showing a significant difference: number of the 14 pQCT parameters (epiphyses and diaphyses) differing significantly from OVX control group; for Epiphyses Bone Density, significant difference vs OVX control group / Epiphyses Cortical Bone Cross-Section, significant difference vs OVX control group / Epiphyses Cortical Bone Thickness, significant difference vs OVX control group / Epiphyses Trabecular Bone Density, significant difference vs OVX control group: femoral distal epiphyses
Experimental: as §1, §2
Subsequently, a bone mass density (mg/cm^3) as a physical quantity was analyzed separately for trabecular bones and cortical bones based on three-dimensional bone densitometry conducted using pQCT on the femoral distal epiphyses and diaphyses and cross-sectional images acquired in pQCT, and bone strength index was identified based on cortical bone width, second moment of area, and section modulus etc. Student's t-test was used for statistical treatment for comparison between the groups.

[3] = test system: osteoporotic model mice; assay: Mineral concentration and ALP activity in mouse sera; format: in vivo; conditions: ovariectomized ICR female mice, fed test feeds for 2 months (doses Table 4)
Experimental: as §1, §2
Subsequently, blood was collected from the tested mice of each group, and mineral concentration and ALP activity in serum were determined. Blood collection was conducted by decapitating under a twilight sleep. The collected blood stood for 1 hour at ice temperature, and thereafter the serum was separated by a centrifuge for 10 minutes at 1000 rpm. Calcium amount was determined by chelete coloring method. 50 μL of serum was added to 5 mL of a 0.88 M monoethanolamine buffer adjusted to pH=11, and a mixture of o-cresol-phthalein complexone and 8-quinolinol as a coloring agent was further added. The resulting mixture was sufficiently stirred and stood for 5 minutes, and thereafter absorbance at 570 nm determined using a spectrometer. Phosphorus was determined by direct molybdenum blue method. After 0.2 mL of serum was added to 5 mL of a coloring agent and the resulting mixture stood for 15 minutes at room temperature, absorbance at 690 nm was determined using a spectrometer. The coloring agent was prepared by adding a surfactant to a mixture of ammonium molybdate, ammonium ferrous sulfate and sulfate. Magnesium was determined by xylidyl blue method. 3 mL of a coloring agent was added to 20 μL of serum and the resulting mixture stood for 10 minutes at room temperature, and thereafter absorbance at 520 nm was determined using a spectrometer. The coloring agent was prepared by adding a surfactant to a mixture of xylylazo violet I and ethylene glycol tetraacetic acid.
Alkaline phosphatase was determined by phenyl phosphoric acid substrate method. After 50 μL of serum was added to 2 mL of a substrate buffer and heated at 37° C. for 15 minutes, 2 mL of 36 mM potassium ferricyanide. The resulting mixture was sufficiently stirred, and thereafter absorbance at 570 nm was determined using a spectrometer. The substrate buffer was prepared by adding a mixture of 4-aminoantipyrine and phenylphosphoric acid to 50 mM carbonate buffer adjusted to pH=10.5.
In all of these determinations assay kits for clinical and biochemical use manufactured by Wako Pure Chemicals, Co., Ltd. were used.

[4] = pQCT, femoral diaphyses, p value, Student's t-test, 2 months feeding
[5] = pQCT, femoral diaphyses, p value, Student's t-test, 2 months feeding, listed as risedronate
[6] = pQCT, p value, Student's t-test, 2 months feeding
[7] = pQCT, p value, Student's t-test, 2 months feeding, listed as risedronate

Row | Structure (SMILES) | Items showing a significant difference [2] | ALP activity in serum [3] [BL unit] | Ca in serum [3] [mg/dL] | Mg in serum [3] [mg/dL] | P in serum [3] [mg/dL] | Conclusion of 3-D image analysis: effects on bone density and trabecular structure [1] | Order according to the importance of the effects on improvement of trabecular bone structure ([1]; μCT, femoral distal epiphyses) | further results
1 | O=P(O)(O)C(O)(Cc1cccnc1)P(=O)(O)O [Risedronate, risedronate] | 6 | 3.65 ± 1.26 | 9.02 ± 1.15 | 3.12 ± 1.21 | 6.95 ± 0.32 |  |  | Number of parameters with significant effects on improvement of trabecular bone structure ([1]; μCT, femoral distal epiphyses, vs OVX control group (Table 9)): 12; Diaphyses Cortical Bone Cross-Section, significant difference vs OVX control group [2, 4]: p < 0.05; Diaphyses Cortical Bone Thickness, significant difference vs OVX control group [2, 4]: p < 0.05; Diaphyses Cortical Bone Cross-Section, significant difference vs OVX control group [2, 5]: significant increase; Diaphyses Cortical Bone Thickness, significant difference vs OVX control group [2, 5]: significant increase; Epiphyses Bone Density, significant difference vs OVX control group [2, 6]: p < 0.01; Epiphyses Cortical Bone Cross-Section, significant difference vs OVX control group [2, 6]: p < 0.05; Epiphyses Cortical Bone Thickness, significant difference vs OVX control group [2, 6]: p < 0.05; Epiphyses Trabecular Bone Density, significant difference vs OVX control group [2, 6]: p < 0.05; Epiphyses Bone Density, significant difference vs OVX control group [2, 7]: significant increase; Epiphyses Cortical Bone Cross-Section, significant difference vs OVX control group [2, 7]: significant increase; Epiphyses Cortical Bone Thickness, significant difference vs OVX control group [2, 7]: significant increase; Epiphyses Trabecular Bone Density, significant difference vs OVX control group [2, 7]: significant increase
2 | CC(C)=CCC/C(C)=C/CC/C(C)=C/CC/C(C)=C/CC1=C(C)C(=O)c2ccccc2C1=O [MK-4, Vitamin K2 (MK-4)] | 2 | 3.52 ± 1.82 | 9.60 ± 0.51 | 2.67 ± 0.28 | 6.96 ± 0.44 | improvement in bone internal structure was observed as a prevalent effect | MK7, the composite and MK4 is arranged in this order | Diaphyses Trabecular Bone Density, significant difference vs OVX control group [2, 4]: p < 0.05
3 | CC(C)=CCC/C(C)=C/CC/C(C)=C/CC/C(C)=C/CC/C(C)=C/CC/C(C)=C/CC/C(C)=C/CC1=C(C)C(=O)c2ccccc2C1=O [MK-7, Vitamin K2 (MK-7)] | 4 | 3.77 ± 1.76 | 9.34 ± 1.50 | 2.63 ± 0.63 | 7.12 ± 0.64 | both effects on an increased bone density and improved trabecular structure, with the improvement in trabecular structure being prevalent effect | MK7, the composite and MK4 is arranged in this order | Diaphyses parameters, difference vs OVX control group ([2]; pQCT, femoral diaphyses, all parameters): no significant difference

Source: patent US20090110748A1, “Biocompatible Material and Process for Manufacturing the Same” (priority 2007, published 2009)
